Consider one compound from patent publication US10104889B2 (priority 2011, dated 2018).

Structures are written as SMILES.

The assay has as its system Candidatus ‘Liberibacter asiaticus’. It is filed as in vivo. The note with it: 1 μM, all tested variants, monthly until sixth month, FIG. 6.

As for `C[C@@H]1CC[C@@]2(OC1)O[C@H]1C[C@H]3[C@@H]4CC[C@H]5CC(O)CC[C@]5(C)[C@H]4OC(=O)C[C@]3(C)[C@H]1[C@@H]2C` (stereo partly drawn) [brassinosteroid analogue, (25R)-3-hydroxy-C-homo-11-oxa-5-espirostan-12-one], the “bacterial reduction at application frequencies 1, 2 and 4 times per month” value is given as “bacterial reduction was observed”.
